Results published in patent publication US11358957B2, “Microbiocidal oxadiazole derivatives” (SYNGENTA PARTICIPATIONS AG, priority 2017, dated 2022).

Legend:
[1] = tested on: Puccinia recondita f. Sp. Tritici; assay: Fungicidal activity against Puccinia recondita f. sp. tritici / wheat / leaf disc preventative (brown rust); format: in vivo; details: foliar, 200 ppm in the applied formulation, wheat leaf segments cv. Kanzler, preventative (inoculated 1 day after application), compared to untreated, read-out: disease control
Method in brief: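 Segments of wheat cv. Kanzler on water agar were sprayed with compound and inoculated with spores 1 day later. They were kept at 19 °C, 75% rh and 12 h light/12 h dark. Percent disease control versus untreated was scored 7–9 days after application; compounds were tested at 200 ppm.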

[2] = tested on: Puccinia recondita f. Sp. Tritici; assay: Fungicidal activity against Puccinia recondita f. sp. tritici / wheat / leaf disc curative (brown rust); format: in vivo; details: foliar, 24 h, 200 ppm in the applied formulation, wheat leaf segments cv. Kanzler, curative (applied 1 day after inoculation), compared to untreated, read-out: disease control
Method in brief: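 Wheat leaf segments (cv. Kanzler) on agar were inoculated with brown rust spores, kept dark at 19 °C and 75% RH, then sprayed 1 day later with compound (DMSO stock diluted in 0.025% Tween20). Under 12 h light/12 h dark at 19 °C, percent disease control versus untreated was scored 6–8 days after application; 200 ppm applied.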

[3] = tested on: Phakopsora pachyrhizi; assay: Fungicidal activity against Phakopsora pachyrhizi / soybean / leaf disc preventative (Asian soybean rust); format: in vivo; details: foliar, 200 ppm in the applied formulation, soybean leaf disks, compared to untreated, read-out: disease control
Description: Leaf disks or leaf segments of various plant species are cut from plants grown in a greenhouse. The cut leaf disks or segments are placed in multiwell plates (24-well format) onto water agar. The leaf disks are sprayed with a test solution before (preventative) or after (curative) inoculation. Compounds to be tested are prepared as DMSO solutions (max. 10 mg/mL) which are diluted to the appropriate concentration with 0.025% Tween20 just before spraying. The inoculated leaf disks or segments are incubated under defined conditions (temperature, relative humidity, light, etc.) according to the respective test system. A single evaluation of disease level is carried out 3 to 14 days after inoculation, depending on the pathosystem. Percent disease control relative to the untreated check leaf disks or segments is then calculated. Soybean leaf disks are placed on water agar in multiwell plates (24-well format) and sprayed with the formulated test compound diluted in water. One day after application leaf discs are inoculated by spraying a spore suspension on the lower leaf surface. After an incubation period in a climate cabinet of 24-36 hours in darkness at 20° C. and 75% rh leaf disc are kept at 20° C. with 12 h light/day and 75% rh. The activity of a compound is assessed as percent disease control compared to untreated when an appropriate level of disease damage appears in untreated check leaf disks (12 to 14 days after application). The following compounds at 200 ppm in the applied formulation give at least 80% disease control in this test when compared to untreated control leaf disks under the same conditions, which show extensive disease development.

[4] = tested on: Glomerella lagenarium (Colletotrichum lagenarium); assay: Fungicidal activity against Glomerella lagenarium (Colletotrichum lagenarium) liquid culture / cucumber / preventative (anthracnose); format: cell-based; details: Colletotrichum orbiculare; 20 ppm in the applied formulation; liquid culture (PDB), inhibition of growth measured photometrically 3 to 4 days after application; compared to untreated; read-out: disease control
Method in brief: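 Conidia from cryogenic storage mixed into potato dextrose broth and added to compound in DMSO in microtiter plates. Incubated at 24° C.; growth inhibition read photometrically 3 to 4 days after application. Disease control expressed relative to untreated control, with compound at 20 ppm in the applied formulation.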

**Q.** Which results are given for `CNC(=O)c1ncnn1Cc1ccc(-c2noc(C(F)(F)F)n2)s1` [Compound 1.48, N-methyl-2-[[5-[5-(trifluoromethyl)-1,2,4-oxadiazol-3-yl]-2-thienyl]methyl]-1,2,4-triazole-3-carboxamide]?
**A.** pest or weed control at 200 ppm [1]: ≥ 80%; pest or weed control at 200 ppm [2]: ≥ 80%; pest or weed control at 200 ppm [3]: ≥ 80%; inhibition of growth at 20 ppm [4]: ≥ 80%; melting point: 132 to 140 °C

**Q.** What does the source list for `CCOC(=O)c1ccn(Cc2ccc(-c3noc(C(F)(F)F)n3)s2)n1` [Compound 1.42, ethyl 1-[[5-[5-(trifluoromethyl)-1,2,4-oxadiazol-3-yl]-2-thienyl]methyl]pyrazole-3-carboxylate]?
**A.** pest or weed control at 200 ppm [1]: ≥ 80%; pest or weed control at 200 ppm [2]: ≥ 80%; pest or weed control at 200 ppm [3]: ≥ 80%; inhibition of growth at 20 ppm [4]: ≥ 80%; melting point: 120 to 124 °C

**Q.** Which pest or weed control at 200 ppm [1] does the source give for `CNC(=O)c1ccn(Cc2ccc(-c3noc(C(F)(F)F)n3)s2)n1` [Compound 1.51, N-methyl-1-[[5-[5-(trifluoromethyl)-1,2,4-oxadiazol-3-yl]-2-thienyl]methyl]pyrazole-3-carboxamide] here?
**A.** ≥ 80%

**Q.** And the pest or weed control at 200 ppm [2]?
**A.** ≥ 80%

**Q.** And the pest or weed control at 200 ppm [3]?
**A.** ≥ 80%

**Q.** What about the inhibition of growth at 20 ppm [4] of the same compound?
**A.** ≥ 80%

**Q.** And the melting point?
**A.** 124 to 126 °C

**Q.** Which results are given for `CCCOC(=O)c1ccn(Cc2ccc(-c3noc(C(F)(F)F)n3)s2)n1` [Compound 1.46, propyl 1-[[5-[5-(trifluoromethyl)-1,2,4-oxadiazol-3-yl]-2-thienyl]methyl]pyrazole-3-carboxylate]?
**A.** pest or weed control at 200 ppm [1]: ≥ 80%; pest or weed control at 200 ppm [2]: ≥ 80%; pest or weed control at 200 ppm [3]: ≥ 80%; inhibition of growth at 20 ppm [4]: ≥ 80%; melting point: 88 to 94 °C

**Q.** With `CNC(=O)c1ccnn1Cc1ccc(-c2noc(C(F)(F)F)n2)s1` [Compound 1.52, N-methyl-2-[[5-[5-(trifluoromethyl)-1,2,4-oxadiazol-3-yl]-2-thienyl]methyl]pyrazole-3-carboxamide] as the compound, how does the pest or weed control at 200 ppm [1] read?
**A.** ≥ 80%

**Q.** What about the pest or weed control at 200 ppm [2] of the same compound?
**A.** ≥ 80%

**Q.** And the pest or weed control at 200 ppm [3]?
**A.** ≥ 80%

**Q.** And the inhibition of growth at 20 ppm [4]?
**A.** ≥ 80%

**Q.** What about the melting point of the same compound?
**A.** 148 to 151 °C
